From the supplement of paper PMC10307832

What was measured:
Experiment in all cases: relative viability (nuclei count vs DMSO), 5 days (fraction); higher = more cells survive
[1] = compound: O=C(C[C@H]1NCCC[C@@H]1O)Cn1cnc2cc(Br)c(Cl)cc2c1=O (racemic) [Halofuginone] + CC(=O)Nc1cccc(-n2c(=O)n(C3CC3)c(=O)c3c(Nc4ccc(I)cc4F)n(C)c(=O)c(C)c32)c1 [Trametinib] (partner 0.02 µM)
Procedure, shortened: (§1)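 A single step with final 0.05% Triton X-100, 1% formaldehyde and 1 ug/ml Hoechst fixed the cells and stained nuclei 5 days after treatment. Lung cancer cell lines in 1536-well plates had been treated by pin tool the day after seeding with one drug alone or a fixed anchor-drug dose plus five library-drug doses (not always all listed) in √10 steps, and nuclei were counted on 4× images. Relative viability is the ratio of nuclei in treated wells to nuclei in vehicle wells, taken as the median of duplicate plates.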

Cediranib + OSI-027 = compound: COc1cc2c(Oc3ccc4[nH]c(C)cc4c3F)ncnc2cc1OCCCN1CCCC1 [Cediranib] + COc1cccc2cc(-c3nc([C@H]4CC[C@H](C(=O)O)CC4)n4ncnc(N)c34)[nH]c12 [OSI-027] (partner 0.5 µM)
Procedure, shortened: as §1

Halofuginone + Dasatinib = compound: O=C(C[C@H]1NCCC[C@@H]1O)Cn1cnc2cc(Br)c(Cl)cc2c1=O (racemic) [Halofuginone] + Cc1nc(Nc2ncc(C(=O)Nc3c(C)cccc3Cl)s2)cc(N2CCN(CCO)CC2)n1 [Dasatinib] (partner 0.075 µM)
Procedure, shortened: as §1

Halofuginone + AZD7762 = compound: O=C(C[C@H]1NCCC[C@@H]1O)Cn1cnc2cc(Br)c(Cl)cc2c1=O (racemic) [Halofuginone] + NC(=O)Nc1cc(-c2cccc(F)c2)sc1C(=O)N[C@H]1CCCNC1 [AZD7762] (partner 0.2 µM)
Procedure, shortened: as §1

Cell Line | relative viability ([1]; first compound 0.001 µM) | relative viability ([1]; first compound 0.003162 µM) | relative viability ([1]; first compound 0.01 µM) | relative viability ([1]; first compound 0.03162 µM) | relative viability ([1]; first compound 0.1 µM) | relative viability (Cediranib + OSI-027; first compound 0.04 µM) | relative viability (Cediranib + OSI-027; first compound 0.1265 µM) | relative viability (Cediranib + OSI-027; first compound 0.4 µM) | relative viability (Cediranib + OSI-027; first compound 1.265 µM) | relative viability (Cediranib + OSI-027; first compound 4 µM) | relative viability (Halofuginone + Dasatinib; first compound 0.001 µM) | relative viability (Halofuginone + Dasatinib; first compound 0.003162 µM) | relative viability (Halofuginone + Dasatinib; first compound 0.01 µM) | relative viability (Halofuginone + Dasatinib; first compound 0.03162 µM) | relative viability (Halofuginone + Dasatinib; first compound 0.1 µM) | relative viability (Halofuginone + AZD7762; first compound 0.001 µM) | relative viability (Halofuginone + AZD7762; first compound 0.003162 µM) | relative viability (Halofuginone + AZD7762; first compound 0.01 µM) | relative viability (Halofuginone + AZD7762; first compound 0.03162 µM) | relative viability (Halofuginone + AZD7762; first compound 0.1 µM)
201T | 0.71 | 0.715 | 0.703 | 0.723 | 0.663 | 0.945 | 0.841 | 0.671 | 0.717 | 0.692 | 0.595 | 0.586 | 0.572 | 0.543 | 0.306 | 0.634 | 0.634 | 0.589 | 0.711 | 0.8
A-427 | 0.823 | 0.787 | 0.742 | 0.714 | 0.634 | 0.515 | – | 0.339 | 0.361 | 0.405 | 0.744 | 0.773 | 0.678 | 0.723 | 0.643 | 0.729 | 0.806 | 0.805 | 0.77 | 0.497
ABC-1 | – | – | – | – | – | 0.447 | 0.651 | 0.532 | – | 0.437 | 0.586 | 0.626 | 0.453 | 0.476 | 0.487 | – | 0.728 | 0.689 | 0.832 | 0.775
BEN | 1.14 | 1.11 | 1.07 | 1.02 | 0.714 | 0.308 | – | 0.28 | 0.311 | 0.286 | 0.345 | 0.318 | 0.331 | 0.36 | 0.229 | 0.851 | 0.685 | 0.844 | 0.654 | 0.418
CAL-12T | 0.352 | 0.414 | 0.359 | 0.329 | 0.196 | 0.814 | 0.568 | 0.624 | 0.416 | 0.992 | 0.685 | 0.396 | 0.377 | 0.282 | 0.154 | 0.642 | 0.688 | 0.584 | 0.695 | 0.695
COR-L23 | 0.681 | 0.641 | 0.592 | 0.598 | 0.0948 | 0.913 | 0.767 | 0.738 | 0.675 | 0.872 | 0.617 | 0.481 | 0.535 | 0.311 | 0.083 | – | – | – | – | –
COR-L 105 | 0.446 | 0.492 | 0.481 | 0.421 | 0.383 | 0.6 | 0.904 | 0.553 | 0.552 | 0.601 | 0.387 | 0.353 | 0.316 | 0.257 | 0.234 | – | – | – | – | –
ChaGo-K-1 | 0.873 | 0.899 | 0.924 | 0.887 | 0.79 | 0.441 | 0.363 | 0.535 | 0.572 | 0.615 | 0.502 | 0.602 | 0.607 | 0.622 | 0.6 | 0.869 | 0.839 | 0.854 | 0.874 | 0.885
EKVX | 0.383 | 0.358 | 0.339 | 0.37 | 0.314 | 0.759 | 0.809 | 0.681 | 0.684 | 0.723 | 0.522 | 0.445 | 0.662 | 0.605 | 0.418 | 0.721 | 0.615 | 0.692 | 0.784 | 0.496
